# Biological target: T1, neuraminidase (NA), neuraminidase inhibitors screen kit
# T1 construct: enzyme of a commercial Beyotime screening kit
# Assay type: biochemical
# Conditions: not given
row,Structure (SMILES),IC50 [µg/mL]
1,"O=C(O)[C@H]1O[C@@H](Oc2cc3oc(-c4ccc(O)cc4)cc(=O)c3c(O)c2O)[C@H](O)[C@@H](O)[C@@H]1O [compound 5, scutellarin]",321.8 ± 62.8

# Same assay, conditions: 2'-(4-methylumbelliferyl)-alpha-D-N-acetylneuraminic acid substrate; 37 °C; 30 min
row,Structure (SMILES),IC50 [µg/mL]
1,"COc1c(O)cc(O)c2c(=O)cc(-c3ccccc3)oc12 [compound 23, wogonin]",331.1 ± 49.4
2,"O=C(O)[C@H]1O[C@@H](Oc2cc3oc(-c4ccccc4)cc(=O)c3c(O)c2O)[C@H](O)[C@@H](O)[C@@H]1O [compound 11, baicalin]",267.3 ± 37.8
3,"COc1c(O)cc2oc(-c3ccccc3)cc(=O)c2c1O [compound 25, oroxylin A]",> 1000
4,"O=c1cc(-c2ccccc2)oc2cc(O)cc(O)c12 [compound 24, chrysin]",402.80 ± 67.8
5,"COc1c(O[C@@H]2O[C@H](C(=O)O)[C@@H](O)[C@H](O)[C@H]2O)cc(O)c2c(=O)cc(-c3ccccc3)oc12 [compound 19, wogonoside]",428.3 ± 18.9
6,"O=c1cc(-c2ccc(O)cc2)oc2cc(O)c(O)c(O)c12 [compound 10, scutellarein]",664.5 ± 26.2
7,"O=C(O)[C@H]1O[C@@H](Oc2cc(O)c3c(=O)cc(-c4ccccc4)oc3c2)[C@H](O)[C@@H](O)[C@@H]1O [compound 15, chrysin-7-O-glucuronide]",493.6 ± 64.2
8,"O=c1cc(-c2ccccc2)oc2cc(O)c(O)c(O)c12 [compound 22, baicalein]",397.7 ± 9.91
